Data reported in patent US9120774B2 (University of Kansas, priority 2009, dated 2015).
Like-named read-outs stand apart in the source and are kept apart here.

Key:
Format in all cases: cell-based
[1] = test system: HCT-116 (colon cancer cells characterized by wild-type p53); test: Anti-proliferation activity against HCT-116 cells; conditions: Homo sapiens
Experimental: (§1) Upon completion of synthesis of library of compounds in Examples 23 and 24, the compounds were evaluated for anti-proliferative activity against SkBr3 (Her2 overexpressing breast cancer cells), MCF-7 (estrogen receptor positive breast cancer cells), HCT-116 (colon cancer cells characterized by wild-type p53), PL45 (pancreatic cancer cells), LNCaP (androgen sensitive prostate cancer cells) and PC-3 (androgen independent prostate cancer cells) cell lines. […] The monosubstituted benzamide variants improved activity.

[2] = test system: SkBr3 (Her2 overexpressing breast cancer cells); test: Anti-proliferation activity against SkBr3 cells (MTS/PMS); conditions: Homo sapiens, SK-BR-3, n = 3, read-out: IC50 SkBr3
Outline: (§2)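 Cells seeded at 2000/well, attached overnight, then exposed to compound at varying concentrations (1% DMSO final) for 72 hours at 37° C. Viable cells read by MTS/PMS, normalised to 1% DMSO as 100% proliferation. IC50 from separate triplicate experiments.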

[3] = test system: LNCaP (androgen sensitive prostate cancer cells); test: Anti-proliferation activity against LNCaP cells; conditions: Homo sapiens, LNCaP, n = 3, read-out: IC50 LNCaP
Outline: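 Cells seeded at 2000/well in Advanced DMEM/F12 with 10% FBS and attached overnight, then given compound in 1% DMSO final for 72 h at 37 °C, 5% CO2. Viable cells by MTS/PMS read-out, normalised to 1% DMSO as 100% proliferation. IC50 from separate triplicate experiments.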

[4] = test system: PC-3 (androgen independent prostate cancer cells); test: Anti-proliferation activity against PC-3 cells; conditions: Homo sapiens, PC-3, n = 3, read-out: IC50 PC-3
Outline: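 Antiproliferative activity was tested in PC-3 androgen-independent prostate cancer cells. Cells grown at 37° C. with 5% CO2 in Advanced DMEM/F12 (1:1) containing non-essential amino acids, 2 mM L-glutamine, streptomycin, penicillin and 10% FBS were plated at 2000/well in 96-well plates. Proliferation was normalized to 1% DMSO controls, and IC50 values from triplicate experiments were fitted in GraphPad Prism.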

[5] = test system: MCF-7 (estrogen receptor positive breast cancer cells); test: Anti-proliferation activity against MCF-7 cells (MTS/PMS); conditions: Homo sapiens, MCF7, n = 3, read-out: IC50 MCF-7
Outline: as §2

[6] = test system: PL45 (pancreatic cancer cells); test: Anti-proliferation activity against PL45 cells
Experimental: as §1

[7] = Table 4, biaryl analogues, n = 3
[8] = Table 5, heterocyclic analogues, n = 3
[9] = Table 5, heterocyclic analogues

Compound	IC50 [1, 7] [µM]	IC50 ([2]; Table 4, biaryl analogues) [µM]	IC50 ([3]; Table 4, biaryl analogues) [µM]	IC50 ([4]; Table 4, biaryl analogues) [µM]	IC50 ([5]; Table 4, biaryl analogues) [µM]	IC50 [6, 7] [µM]	IC50 ([1]; Table 2, n = 3) [µM]	IC50 ([2]; Table 2) [µM]	IC50 ([3]; Table 2) [µM]	IC50 ([4]; Table 2) [µM]	IC50 ([5]; Table 2) [µM]	IC50 ([6]; Table 2, n = 3) [µM]	other results
COc1ccc(C(=O)Nc2cc3ccc(O[C@@H]4OC(C)(C)[C@H](OC)[C@@H](O)[C@H]4O)c(C)c3oc2=O)cc1-c1ccc(O)cc1 [compound 37, N-(7-((2R,3R,4S,5R)-3,4-Dihydroxy-5-methoxy-6,6-dimethyltetrahydro-2H-pyran-2-yloxy)-8-methyl-2-oxo-2H-chromen-3-yl)-4′-hydroxy-6-methoxybiphenyl-3-carboxamide]	1.4 ± 0.1	1.6 ± 0.2	2.6 ± 0.5	22.3 ± 3.6	2.3 ± 0.8	1.9 ± 0.8	–	–	–	–	–	–	–
COc1ccc(C(=O)Nc2cc3ccc(O[C@@H]4OC(C)(C)[C@H](OC)[C@@H](O)[C@H]4O)c(C)c3oc2=O)cc1 [compound 11, N-(7-((2R,3R,4S,5R)-3,4-Dihydroxy-5-methoxy-6,6-dimethyltetrahydro-2H-pyran-2-yloxy)-8-methyl-2-oxo-2H-chromen-3-yl)-4-methoxybenzamide]	–	–	–	–	–	–	15.9 ± 1.9	15.6 ± 4.2	7.3 ± 0.9	17.1 ± 4.3	10.3 ± 0.9	5.9 ± 2.1	–
CO[C@@H]1[C@@H](O)[C@@H](O)[C@H](Oc2ccc3cc(NC(=O)c4ccccc4N)c(=O)oc3c2C)OC1(C)C [compound 18, 2-Amino-N-(7-((2R,3R,4S,5R)-3,4-dihydroxy-5-methoxy-6,6-dimethyltetrahydro-2H-pyran-2-yloxy)-8-methyl-2-oxo-2H-chromen-3-yl)benzamide]	–	–	–	–	–	–	14.4 ± 0.8	17.7 ± 1.4	12.7 ± 0.8	57.9 ± 10.1	17.2 ± 3.3	6.2 ± 1.3	–
CO[C@@H]1[C@@H](O)[C@@H](O)[C@H](Oc2ccc3cc(NC(=O)c4ccc5c(c4)OCO5)c(=O)oc3c2C)OC1(C)C [compound 45, N-(7-((2R,3R,4S,5R)-3,4-Dihydroxy-5-methoxy-6,6-dimethyltetrahydro-2H-pyran-2-yloxy)-8-methyl-2-oxo-2H-chromen-3-yl)benzo[d][1,3]dioxole-5-carboxamide]	–	–	–	–	–	–	–	–	–	–	–	–	IC50 [1, 8]: > 100 µM; IC50 [2, 9]: > 100 µM; IC50 [3, 9]: 9.3 ± 0.6 µM; IC50 [4, 9]: 10.9 ± 2.3 µM; IC50 [5, 9]: > 100 µM; IC50 [6, 8]: 5.2 ± 1.1 µM
COc1cccc(-c2cc(C(=O)Nc3cc4ccc(O[C@@H]5OC(C)(C)[C@H](OC)[C@@H](O)[C@H]5O)c(C)c4oc3=O)ccc2OC)c1 [compound 33, N-(7-((2R,3R,4S,5R)-3,4-Dihydroxy-5-methoxy-6,6-dimethyltetrahydro-2H-pyran-2-yloxy)-8-methyl-2-oxo-2H-chromen-3-yl)-3′,6-dimethoxybiphenyl-3-carboxamide]	5.1 ± 1.1	7.5 ± 1	2.1 ± 0.3	53.3 ± 4.5	18.7 ± 1.8	2 ± 0.6	–	–	–	–	–	–	–
COc1ccc(C(=O)Nc2cc3ccc(O[C@@H]4OC(C)(C)[C@H](OC)[C@@H](O)[C@H]4O)c(C)c3oc2=O)cc1-c1ccccc1 [compound 28, N-(7-((2R,3R,4S,5R)-3,4-Dihydroxy-5-methoxy-6,6-dimethyltetrahydro-2H-pyran-2-yloxy)-8-methyl-2-oxo-2H-chromen-3-yl)-6-methoxybiphenyl-3-carboxamide]	11.4	16.5 ± 4.7	1.9 ± 0.2	25.4 ± 5.2	19.5 ± 2.3	2.8 ± 0.4	–	–	–	–	–	–	–
CO[C@@H]1[C@@H](O)[C@@H](O)[C@H](Oc2ccc3cc(NC(=O)c4ccc(N)cc4)c(=O)oc3c2C)OC1(C)C [compound 20, 4-Amino-N-(7-((2R,3R,4S,5R)-3,4-dihydroxy-5-methoxy-6,6-dimethyltetrahydro-2H-pyran-2-yloxy)-8-methyl-2-oxo-2H-chromen-3-yl)benzamide]	–	–	–	–	–	–	24.4 ± 5.8	33.1 ± 1.1	26.4 ± 15.8	65.2 ± 2.8	14 ± 0.5	8.4 ± 0.3	–
CO[C@@H]1[C@@H](O)[C@@H](O)[C@H](Oc2ccc3cc(NC(=O)c4ccccc4)c(=O)oc3c2C)OC1(C)C [compound 8, N-(7-((2R,3R,4S,5R)-3,4-Dihydroxy-5-methoxy-6,6-dimethyltetrahydro-2H-pyran-2-yloxy)-8-methyl-2-oxo-2H-chromen-3-yl)benzamide]	–	–	–	–	–	–	13 ± 2.1	21.5 ± 1.4	72 ± 4	67.6 ± 9.7	20.6 ± 0.4	3.4 ± 0.6	–
